We go through one compound from US12083089B2, “Compositions and methods for stimulating ventilatory and/or respiratory drive” (CASE WESTERN RESERVE UNIVERSITY, priority 2015, dated 2024).

Assay [1] deals with freely moving rats. As to the kind of experiment: Tail-flick latency (TFL) test. Type of assay: in vivo, rat.
Assay [2] concerns freely moving rats. The experiment in a line: Hot-plate (hind-paw withdrawal) latency (HPL), Hargreaves's test, morphine 10 mg/kg. It counts as in vivo, rat.
The subject of another assay is conscious rats. As to the kind of experiment: Morphine-induced analgesia (paw withdrawal latency assay), Example 1. It counts as in vivo, rat. The settings on record: 500 μmol/kg i.v.; 10 mg/kg of morphine; FIG. 13.
For assay [3], the system named is freely moving adult male Sprague-Dawley rats. As to the kind of experiment: Whole-body plethysmography of ventilatory parameters in morphine-treated rats. The protocol: Permissions, rats, surgical procedures and blinding of protocols. All studies were carried out in accordance with the NIH Guide for the Care and Use of Laboratory Animals (NIH Publication No. […]) revised in 1996. The protocols were approved by the Animal Care and Use Committees of the University of Virginia, Case Western Reserve University and Loma Linda University. In addition, all studies were carried out in compliance with the ARRIVE (Animal Research: Reporting of In Vivo Experiments) guidelines. Adult male Sprague-Dawley rats (Harlan, Madison, WI, USA) were implanted with jugular vein catheters under 2% isoflurane anesthesia and some rats received femoral arterial catheters. The rats were allowed at least four days to recover from surgery before use. All arterial catheters were flushed daily with heparin solution (50 units of heparin in phosphate-buffered saline at 0.1 M, pH 7.4). All catheters were flushed with phosphate-buffered saline (0.1 M, pH 7.4) approximately four hours before commencement of the experiments. All studies were performed in a quiet laboratory with relative humidity of 49±2% and room temperature of 21.4±0.2° C. […] Also, please note that the antinociception and ventilatory studies were done in separate groups of rats so as to not complicate the respiratory measurements. The recording (plethysmography, antinociception) sessions and the arterial blood gas assays were done by a particular investigator who administered the opioid, vehicle or test drug such as d-cystine diME. The syringes containing the vehicle or test drug were made up by another investigator, such that the investigator running the actual experiment was blinded to the treatment protocol. In every case, the data files resulting from a particular study were first collated and analyzed by another investigator in the group.
Ventilatory parameters were recorded in freely moving rats by whole body plethysmography (PLY3223; Data Sciences International, St. Paul, MN). The rats were placed in individual chambers and given 60 min to acclimatize to allow true resting ventilatory parameters to be established. […] The rats received another injection of vehicle or 1-NACme (500 μmol/kg, IV) 15 min later and ventilatory parameters were recorded for a further 60 min.
The provided software (Fine Pointe, BUXCO) constantly corrected digitized values for changes in chamber temperature and humidity. Pressure changes associated with the respiratory waveforms were then converted to volumes (i.e., TV, PIF and PEF) using the algorithm of Epstein and colleagues. Specifically, factoring in chamber temperature and humidity, the cycle analyzers filtered the acquired signals, and BUXCO algorithms (Fine Pointe) generated an array of box flow data that identified a waveform segment as an acceptable breath. From that data vector, the minimum and maximum values were determined. Flows at this point were considered to be “box flow” signals.
The recorded data (1 min bins) and derived parameters, Vt/Ti and Response Area (cumulative percent changes from pre-values) were taken for statistical analyses. The pre-drug 1 min bins excluded occasional marked deviations from resting due to movements or scratching by the rats. These exclusions ensured accurate determinations of baseline parameters. The data are presented as mean±SEM. All data unless other-wise stated (see immediately below) were analyzed by one-way or two-way analysis of variance followed by Student's modified t test with Bonferroni corrections for multiple comparisons between means using the error mean square terms from each ANOVA. A value of P<0.05 denoted the initial level of statistical significance that was modified according to the number of comparisons between means.

Where [4] appears, read: 500 μmol/kg IV, before morphine.
The mark [5] stands for this setting: drug 500 μmol/kg IV 20 min before morphine 10 mg/kg IV.
Setting [6] is: 500 μmol/kg IV in morphine (10 mg/kg IV)-treated rats, FIG. 21.
[7] abbreviates: freely moving rats, morphine 10 mg/kg IV, then d-cystine diEE 500 μmol/kg IV 15 min later.

Regarding `CCOC(=O)[C@H](N)CSSC[C@@H](N)C(=O)OCC` [D-Cystine diEE, D-Cystine diethylester], in the assay on freely moving rats [1] (setting [4]), the “TFL after the drug alone” value is recorded as “transient increase” and the “time within which the transient increase in TFL resolved” value was at most 15 min. For the same compound, the “antinociceptive effects of morphine (TFL) in drug-pretreated rats” value in the assay with freely moving rats [1] (setting [5]) is “enhanced”. For the same compound, in the assay on freely moving rats [2] (setting [4]), the “HPL after the drug alone” value was “transient increase” and the “time within which the transient increase in HPL resolved” value is listed as at most 15 min. Also, the “antinociceptive effects of morphine (HPL) in drug-pretreated rats” value with freely moving rats [2] (setting [5]) is “enhanced”. Moreover, the morphine analgesia result with conscious rats is on record as “does not attenuate”. Moreover, in assay [3] (setting [6]), the “initial peak responses: Freq, TV, MV, PIF, PEF, EF50, inspiratory and expiratory drive” value was “pronounced increases”; the “total response: Freq” value is “relatively minor increase in Freq”; the “total response: TV, MV, PIF, PEF, PEF/PIF, EF50, inspiratory and expiratory drives” value was “robust sustained increases”. Further, the “ventilatory depressant effects of morphine incl. tidal volume/inspiratory time (Vt/Ti)” value in assay [3] (bolus 500 μmol/kg i.v. (D-CYSee 2×500 μmol/kg) after morphine 10 mg/kg i.v., conscious rats, Example 1) was “immediate and sustained reversal”. In addition, the “duration of the brief increase in Freq” value in assay [3] (d-cystine diEE 500 μmol/kg IV, 15 min after morphine 10 mg/kg IV) is “about 5 min”. Also, in assay [3] (setting [7]), the “changes in EF50” value was “further prompt and sustained increase”; the “changes in PEF/PIF” value is recorded as “decrease in PEF/PIF immediately upon injection”; the “changes in expiratory drive (TV/Te)” value was “substantial and sustained increase”; the “changes in expiratory time (Te)” value is listed as “without greatly affecting Te”. Besides, in assay [3] (setting [7]), the “changes in frequency of breathing (Freq)” value is “brief increase in Freq of about 5 min in duration that was followed by a gradual and sustained elevation”; the “changes in inspiratory drive (TV/Ti)” value is recorded as “noticeable but partial recovery”; the “changes in inspiratory time (Ti)” value is “brief decrease in Ti”; the “changes in minute ventilation (MV)” value is “prompt and long-lasting reversal”. Also, in assay [3] (setting [7]), the “changes in peak expiratory flow (PEF)” value was “marked increase in PEF to levels well above pre-morphine levels”; the “changes in peak inspiratory flow (PIF)” value is “prompt and relatively sustained reversal”; the “changes in the ratio of Te/Ti” value is “similarly”.
